Data on two molecules can be found in paper PMC10301333, “The C-Terminus of Panusin, a Lobster β-Defensin, Is Crucial for Optimal Antimicrobial Activity and Serum Stability” (Pharmaceutics, 2023).

SMILES strings stand for the structures. In brackets after ≈: the same amount, converted by molar mass. Bridge positions count the residues as written; N and C are the ends. Peptide text beside a SMILES is read from it.

In data set [1] the test system is Acinetobacter baumannii. The note with it: A. baumannii ATCC 15308. How it is done: (§1) Antimicrobial activities of both PaD and Ct_PaD were determined in a modified microdilution assay as described previously for other β-defensins such as peptides. The assay was performed in sterile polypropylene 96-well plates that prevent peptide binding (Greiner, Frickenhausen, Germany). From a bacterial isolate, a single colony was seeded in Mueller Hinton Broth (MHB, Condalab, Torrejón de Ardoz, Spain) and allowed to grow at 37 °C in an incubator with orbital shaking at 250 rpm overnight. Subsequently, a new bacterial culture was seeded from the overnight culture and allowed to grow to an OD of 0.5 at 600 nm. The bacterial suspension was diluted to a final concentration of 5 × 10^5 CFU (colony formation unit)/mL in sterile 10 mM phosphate buffer (PB: 2.46 mM NaH2PO4, 7.5 mM Na2HPO4, pH 7.4), used as the working culture. Next, 50 μL of 2-fold serial dilutions of each peptide in PB were placed on the plates to provide a final 0.097–100 µM concentration range after which 50 μL of working culture was applied to each well. The plate was first incubated for 2 h at 37 °C, then 100 μL of MHB 2× was added to each well and was incubated at 37 °C overnight with shaking. The growth of bacteria was measured by the optical density at 600 nm in a microplate reader (Tecan, Männedorf, Switzerland). The minimum inhibitory concentration (MIC) was defined as the minimum peptide concentration in which the microorganism is unable to grow. The results are the average of three independent studies. […] MBC was defined for each peptide as the lowest concentration with no bacterial growth detected.

Data set [2] has as its system Escherichia coli. To be noted: E. coli BW25113. The procedure: as §1
For data set [3], the system named is Enterococcus faecium. The note with it: E. faecium ATCC 19434. How it is done: as §1
The test system of data set [4] is Micrococcus luteus. To be noted: M. luteus ATCC 15,307. How it is done:
as §1

Data set [5] concerns Pseudomonas aeruginosa. The note with it: P. aeruginosa ATCC 15692. The procedure:
as §1

In data set [6] the test system is Staphylococcus aureus. To be noted: S. aureus ATCC 12600. How it is done:
as §1

Data set [7] relates to horse red blood cells. The data set is described as follows: Hemolytic activity (hemoglobin release). The procedure:
Both peptides were tested for hemolytic activity on horse red blood cells (RBCs), as described earlier. Briefly, fresh RBCs in PBS (pH 7.4) were first centrifuged 3 × 1500× g for 5 min, then diluted 1:10 with PBS to yield an RBC concentration of ~5 × 10^8 cells/mL. RBCs were then incubated for 1 h at 37 °C with 2-fold serial dilutions of PaD or Ct_PaD covering a 0.24–250 μM concentration range. Next, 0.1% TritonX100 and PBS were used as positive and negative controls, respectively. After incubation, samples were centrifuged at 1500× g for 10 min at room temperature and the supernatant (60 μL) was transferred to a flat-bottomed 96-well polypropylene microplate (Greiner, Frickenhausen, Germany). Hemoglobin release was then measured as OD at 540 nm in a VICTOR3 microplate reader (Perkin Elmer, Waltham, MA, USA). Percent hemolysis was calculated as indicated below (Equation (1)).

Data set [8] in a line: Analytical RP-HPLC retention time as measure of hydrophobic character. Type of data set: physicochemical. To be noted: chromatographic, Luna C18 4.6 × 50 mm, 3 µm; 10 to 50 linear gradient of MeCN (0.036% TFA) into H2O (0.045% TFA) over 15 min, 1 mL/min, UV 220 nm; used as indicator of hydrophobic character. How it is done:
Analytical RP-HPLC was performed on an LC-2010 instrument (Shimadzu, Kyoto, Japan) using a Luna C18 column (4.6 × 50 mm, 3 µm; Phenomenex, Torrance, CA, USA), eluted with linear gradients of solvent B (0.036% TFA in MeCN) into solvent A (0.045% TFA in H2O) over 15 min at a 1 mL/min flow rate, with UV detection at 220 nm.
The HPLC retention times of PaD and Ct_PaD reflect some differences in hydrophobic character. […] Such differences in hydrophobicity might influence both antimicrobial and cytotoxic activity, which were therefore assessed next.
Supplementary Materials: The C-terminus of Panusin, a Lobster β-defensin, Is Crucial for Optimal Antimicrobial
Activity and Serum Stability
Roberto Bello-Madruga, Javier Valle, M. Ángeles Jiménez, Marc Torrent, Vivian Montero-Alejoand David Andreu
1. Synthetic Peptide Characterization
Table S1. Peptide Analytical Data.
1 Theoretical Experimental HPLC Retention Purity
Peptide Mass (Da) Mass (Da)2 Time (min)3 (HPLC, %)4
1 All peptides are C-terminal carboxamides; 2 Determined by LC-MS, 3 Elution was carried out with a 10 to 50 linear gradient over 15 min; 4 Determined by analytical HPLC.
Figure S1. RP-HPLC elution profile of purified peptides. […]

Data set [9] in a line: MTT cytotoxicity assay. It is filed as cell-based. To be noted: human; MRC-5 cells, 4 h peptide incubation, 1.56–200 μM, MTT, OD 570 nm; average of three independent replicates; read-out: MRC-5 cytotoxicity (IC50). The procedure:
MRC-5 cells were cultured in Eagle’s minimum essential medium (MEMα), supplemented with 10% (v/v) fetal bovine serum (FBS) and a 1% penicillin (100 IU/mL)/streptomycin (100 μg/mL) solution, and maintained at 37 °C in a humidified atmosphere with 5% CO2. After cells were grown, they were seeded into 96-well plates at 3 × 10^4 cells/well and cultured overnight to adhere to the plate. Subsequently, adherent cells were incubated for 4 h under standard conditions (5% CO2, 37 °C) with 2-fold serial dilutions of each peptide in a 1.56–200 μM concentration range. Following incubation, the peptide-containing medium was replaced with MEM supplemented with FBS and 3-(4,5-dimethylthiazol-2-yl)-2,5 diphenyltetrazolium bromide (MTT) at 0.4 mg/mL, and the cells were further incubated for 120 min. Formazan crystals in live cells were detected after disruption with 200 μL of DMSO by OD measurement at 570 nm in a Tecan microplate reader. […] Data are the average of three independent replicates.
Background: Tetrazolium assays rely on reduction of a dye to a coloured formazan, in cell work by metabolically active cells.

Setting [10] is: 10 mM phosphate buffer pH 7.4, 2 h at 37 °C, then MHB overnight, OD 600 nm, average of three independent studies.
[11] abbreviates: plated, 37 °C, 24 h, lowest concentration with no bacterial growth.

Usually MIC stands for the least concentration at which growth counts as inhibited. High values mean a less susceptible organism, low ones a more susceptible organism. One may read the MBC as the lowest tested concentration that kills the bacteria rather than only halting them. Read a low MBC as more potent killing. For the molecule `CC[C@H](C)[C@H](NC(=O)[C@H](CCCCN)NC(=O)[C@H](CCC(=O)O)NC(=O)[C@H](CCCCN)NC(=O)[C@H](CO)NC(=O)[C@H](CCCCN)NC(=O)[C@H](CCCNC(=N)N)NC(=O)[C@H](Cc1ccccc1)NC(=O)[C@H](Cc1ccccc1)NC(=O)[C@H](CC(=O)O)NC(=O)CNC(=O)[C@H](CC(C)C)NC(=O)[C@@H](N)CC(C)C)C(=O)NCC(=O)N[C@@H](CCCCN)C(=O)N[C@@H](CCC(=O)O)C(=O)N[C@@H](Cc1ccccc1)C(=O)N[C@@H](CCCCN)C(=O)N[C@@H](CCCNC(=N)N)C(=O)N[C@H](C(=O)N[C@H](C(=O)N[C@@H](CCC(N)=O)C(=O)N[C@@H](CCCNC(=N)N)C(=O)N[C@H](C(=O)N[C@@H](CCCCN)C(=O)N[C@@H](CC(=O)O)C(=O)N[C@@H](Cc1ccccc1)C(=O)N[C@@H](CC(C)C)C(=O)N[C@@H](CCCNC(=N)N)C(=O)N[C@@H](CC(N)=O)C(=O)N[C@@H](CC(C)C)C(=O)N[C@H](C(=O)N1CCC[C@H]1C(=O)N[C@@H](CCCNC(=N)N)C(=O)N[C@H](C(=O)N[C@@H](CCC(=O)O)C(=O)N[C@@H](CO)C(=O)O)[C@@H](C)O)C(C)C)[C@@H](C)CC)C(C)C)[C@@H](C)CC` [LL-37, reference compound], the minimum inhibitory concentration (MIC) in data set [1] (setting [10]) amounted to 6.3 µM (≈ 28.3 µg/mL); in data set [2] (5 × 10^5 CFU/mL in 10 mM phosphate buffer pH 7.4, 2 h at 37 °C, then MHB overnight, OD 600 nm, average of three independent studies) it was 1.6 µM (≈ 7.19 µg/mL); in [3] (setting [10]), 1.6 µM (≈ 7.19 µg/mL); in data set [4] (setting [10]) it was 1.6 µM (≈ 7.19 µg/mL); in data set [5] (setting [10]) it was 1.6 µM (≈ 7.19 µg/mL); in [6] (setting [10]), 25 µM (≈ 112 µg/mL). The MBC in data set [1] (setting [11]) came out at 6.3 µM (≈ 28.3 µg/mL); in [2] (50 μL of wells seeded into Petri plates, 37 °C, 24 h, lowest concentration with no bacterial growth), 3.1 µM (≈ 13.9 µg/mL); in [3] (setting [11]), 3.1 µM (≈ 13.9 µg/mL); in [4] (setting [11]) it was 3.1 µM (≈ 13.9 µg/mL); in [5] (setting [11]) it was 1.6 µM (≈ 7.19 µg/mL); in [6] (setting [11]), 25 µM (≈ 112 µg/mL). Moreover, the “Hemolysis % (250 µM peptide)” value in data set [7] (horse RBCs ~5 × 10^8 cells/mL in PBS pH 7.4, 1 h, 37 °C, 250 µM peptide, OD 540 nm, vs 0.1% TritonX100, average of three independent replicates) came to 17.5 ± 0.3%.
Broadly, the IC50 is the point on the concentration scale where inhibition reaches its midpoint. In the case of `CC(C)C[C@@H]1NC(=O)[C@H](CCCNC(=N)N)NC(=O)[C@H](CC(N)=O)NC(=O)CNC(=O)[C@H](Cc2ccc(O)cc2)NC(=O)[C@@H]2CCCN2C(=O)[C@@H](NC(=O)[C@@H](N)Cc2ccc(O)cc2)CSSC[C@@H](C(=O)N[C@@H](CCCNC(=N)N)C(=O)N[C@@H](CCCNC(=N)N)C(=O)N[C@@H](CO)C(=O)N[C@@H](Cc2ccc(O)cc2)C(N)=O)NC(=O)[C@@H]2CSSC[C@H](NC(=O)[C@H](Cc3ccccc3)NC(=O)[C@H](Cc3ccc(O)cc3)NC(=O)[C@H](CC(N)=O)NC1=O)C(=O)N1CCC[C@H]1C(=O)N[C@@H](CC(C)C)C(=O)NCC(=O)N[C@@H](CCCNC(=N)N)C(=O)N[C@@H]([C@@H](C)O)C(=O)N2` [Ct_PaD] (H-YCPYGNRLNYFCPLGRTCCRRSY-NH2; disulfide 2-19, 12-18; N-terminus assumed), the “Hemolytic activity (result in words)” value in [7] (horse red blood cell lysis, tested up to 250 μM, hemoglobin release at 540 nm) was “absence of hemolytic activity”. The “HPLC Retention Time” value in [8] is 6.65 min. In data set [9], the IC50 at 4 h worked out at 175 ± 1.5 µM.
